# Laboratory results published in paper PMC9974506 (Proceedings of the National Academy of Sciences of the …, 2023).
# Molecular target: T1, BRTNaC1 (broad-range thermal receptor 1) (Scolopendra mutilans, UniProt A0ABF7PQ77)
# T1 sequence (A0ABF7PQ77 1-431): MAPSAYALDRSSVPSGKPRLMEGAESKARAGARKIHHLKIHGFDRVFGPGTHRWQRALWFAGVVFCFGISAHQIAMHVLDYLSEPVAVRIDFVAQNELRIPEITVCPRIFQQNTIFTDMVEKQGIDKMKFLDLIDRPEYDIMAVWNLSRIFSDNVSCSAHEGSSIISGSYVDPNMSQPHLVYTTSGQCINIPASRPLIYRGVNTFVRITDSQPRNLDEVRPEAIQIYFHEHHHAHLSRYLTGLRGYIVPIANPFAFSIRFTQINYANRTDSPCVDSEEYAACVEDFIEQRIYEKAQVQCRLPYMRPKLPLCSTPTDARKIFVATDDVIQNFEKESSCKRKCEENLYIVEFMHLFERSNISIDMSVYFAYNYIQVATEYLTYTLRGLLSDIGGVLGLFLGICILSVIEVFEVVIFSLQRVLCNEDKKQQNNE
# Test: patch clamp, transfected HEK293 cells, heat-activated current, Hill fit
# Format: cell-based
compound,measurement,value
C[C@]12CC[C@H]3[C@@H](CCC4=CC(=O)CC[C@@]43C)[C@@H]1CC[C@@H]2O [testosterone],IC50,3.8 ± 1.1 µM
